Values belong to the compound of their own block, whether it stands above or below them.
How the values were obtained:
[1] = UV irradiation of suspensions in oils, HPLC analysis; type: physicochemical; conditions: irradiated 4 hours; for Brexpiprazole (area) / Compound I (area) / Compound II (area): HPLC
Protocol: [table] Suspensions of brexpiprazole anhydrate or brexpiprazole dihydrate (about 10 mg per experiment) in different oils (about 105 mg per suspension) were prepared and irradiated for 4 hours.

[2] = UV exposure of solid brexpiprazole forms (Atlas Suntester XLS+); type: physicochemical; conditions: 60 h Suntester
Description: Brexpiprazole anhydrate and brexpiprazole dihydrate were respectively exposed to UV-radiation using an appropriate illumination device (Atlas Suntester XLS+) at 250 W/m^2 for 60 hrs, which corresponds to a total UV light intensity of […].

[3] = biological target: T1, serotonin 5-HT1A receptors (Homo sapiens, UniProt P08908); conditions: cited from earlier work
T1 sequence (P08908 1-422): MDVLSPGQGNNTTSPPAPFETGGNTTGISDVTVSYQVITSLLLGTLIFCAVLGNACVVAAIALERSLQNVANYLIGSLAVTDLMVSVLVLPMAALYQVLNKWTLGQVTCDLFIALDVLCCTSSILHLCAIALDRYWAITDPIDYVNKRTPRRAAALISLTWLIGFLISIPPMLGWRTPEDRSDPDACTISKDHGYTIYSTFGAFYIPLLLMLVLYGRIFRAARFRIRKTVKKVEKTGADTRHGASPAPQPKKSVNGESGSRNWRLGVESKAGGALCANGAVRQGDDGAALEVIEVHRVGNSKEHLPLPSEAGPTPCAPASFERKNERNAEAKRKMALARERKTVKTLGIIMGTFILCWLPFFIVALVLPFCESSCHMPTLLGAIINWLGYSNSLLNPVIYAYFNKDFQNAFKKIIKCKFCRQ

dopamine D2 receptors = dopamine D2 receptors (Homo sapiens, UniProt P14416); conditions: cited from earlier work
Sequence of dopamine D2 receptors (P14416 whole entry): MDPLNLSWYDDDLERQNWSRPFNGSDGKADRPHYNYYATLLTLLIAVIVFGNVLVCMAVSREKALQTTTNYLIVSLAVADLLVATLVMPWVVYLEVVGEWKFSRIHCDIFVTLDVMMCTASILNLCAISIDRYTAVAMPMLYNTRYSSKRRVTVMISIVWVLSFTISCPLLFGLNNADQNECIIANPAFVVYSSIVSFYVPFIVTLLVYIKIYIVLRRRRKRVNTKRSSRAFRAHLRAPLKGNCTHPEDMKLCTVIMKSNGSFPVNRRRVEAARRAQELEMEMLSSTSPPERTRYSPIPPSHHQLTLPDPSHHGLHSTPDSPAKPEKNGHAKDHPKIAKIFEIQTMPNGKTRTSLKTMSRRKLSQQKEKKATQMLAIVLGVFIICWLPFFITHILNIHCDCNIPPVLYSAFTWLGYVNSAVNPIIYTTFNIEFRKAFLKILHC

[4] = biological target: serotonin 5-HT2A receptors (Homo sapiens, UniProt P28223); conditions: cited from earlier work
Sequence of serotonin 5-HT2A receptors (P28223 whole entry): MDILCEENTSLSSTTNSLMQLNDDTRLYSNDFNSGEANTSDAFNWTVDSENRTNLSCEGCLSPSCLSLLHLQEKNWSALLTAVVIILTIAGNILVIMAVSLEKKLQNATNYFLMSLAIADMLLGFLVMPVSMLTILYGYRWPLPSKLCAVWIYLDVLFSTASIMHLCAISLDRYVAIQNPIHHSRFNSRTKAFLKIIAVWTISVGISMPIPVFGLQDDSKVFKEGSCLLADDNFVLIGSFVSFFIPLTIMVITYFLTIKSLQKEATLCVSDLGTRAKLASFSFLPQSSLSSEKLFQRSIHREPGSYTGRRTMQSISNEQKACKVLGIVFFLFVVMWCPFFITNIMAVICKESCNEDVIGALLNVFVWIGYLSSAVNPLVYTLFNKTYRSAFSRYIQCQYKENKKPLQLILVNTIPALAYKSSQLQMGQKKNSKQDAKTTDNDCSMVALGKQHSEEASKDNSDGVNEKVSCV

[5] = UV lamp irradiation of brexpiprazole solution in toluene/methanol; type: physicochemical
Protocol: For the structure determination of the compound of formula II in Example 2 it was therefore necessary to produce larger quantities of that compound. […] The suspension was heated to 50° C. After stirring for 10 minutes, a clear solution was obtained. The solution was put into a transparent glass vial and irradiated for 18 h by a UV lamp (UVHQ 250 Z by “UV Technik Speziallampen”; radiation strength UVC/UVB/UVA: 38 W at 200 nm-280 nm; 20 W at 280 nm-315 nm; 18 W at 315 nm-400 nm). A light brown, clear solution was obtained. A mixture of brexpiprazole and compound II was obtained (19:81 area %).

[6] = suspension in castor oil, listed as Brx. Anhydrate
[7] = suspension in peanut oil, listed as Brx. Anhydrate
[8] = suspension in castor oil, listed as Brx. Dihydrate
[9] = suspension in peanut oil, listed as Brx. Dihydrate
[10] = toluene/methanol solution, UV lamp 18 h

Brexpiprazole (area) [1, 6]: 99.6%
Compound I (area) [1, 6]: 0.0%
Compound II (area) [1, 6]: 0.4%
Brexpiprazole (area) ([1]; suspension in corn oil): 99.8%
Compound I (area) ([1]; suspension in corn oil): 0.0%
Compound II (area) ([1]; suspension in corn oil): 0.2%
Brexpiprazole (area) [1, 7]: 99.8%
Compound I (area) [1, 7]: 0.0%
Compound II (area) [1, 7]: 0.2%
Structure (SMILES): O=c1ccc2ccc(OCCCCN3CCN(c4cccc5sccc45)CC3)cc2[nH]1 [Brexpiprazole Anhydrate]

sensitivity to UV-induced dimerization vs brexpiprazole anhydrate ([1]; oil suspensions): more sensitive
Brexpiprazole (area) [1, 8]: 61.7%
Compound I (area) [1, 8]: 35.1%
Compound II (area) [1, 8]: 3.2%
Brexpiprazole (area) ([1]; suspension in corn oil): 64.9%
Compound I (area) ([1]; suspension in corn oil): 32.2%
Compound II (area) ([1]; suspension in corn oil): 3.0%
Brexpiprazole (area) [1, 9]: 64.3%
Compound I (area) [1, 9]: 32.4%
Compound II (area) [1, 9]: 3.3%
sensitivity to UV-induced dimerization vs anhydrate form [2]: significantly more sensitive
Structure (SMILES): O=c1ccc2ccc(OCCCCN3CCN(c4cccc5sccc45)CC3)cc2[nH]1 [Brexpiprazole Dihydrate]

Structure (SMILES): O=c1ccc2ccc(OCCCCN3CCN(c4cccc5sccc45)CC3)cc2[nH]1 [Brexpiprazole, 7-[4-[4-(1-Benzothiophen-4-yl)piperazin-1-yl]butoxy]quinolin-2(1H)-one]
activity at serotonin 5-HT1A receptors [3]: partial agonist activity
activity at dopamine D2 receptors (dopamine D2 receptors): partial agonist activity
activity at serotonin 5-HT2A receptors [4]: antagonist activity
sensitivity to UV-radiation vs brexpiprazole anhydrate ([5]; brexpiprazole in solution): significantly more sensitive
stability in control experiment ([5]; solution protected from UV light, vial wrapped in aluminum foil): remained stable
brexpiprazole remaining in mixture [5, 10]: 19 area %
compound II formed in mixture [5, 10]: 81 area %

Reference: patent US20200093821A1, “Pharmaceutical Compositions of a Benzothiophene Compound” (Hexal AG, priority 2016, published 2020)
